# Test results taken from ChEMBL document CHEMBL1150305, “Synthesis and in vitro PDT activity of miscellaneous porphyrins with amino acid and uracil” (2008).
# Test: Photocytotoxicity against human Ec9706 cells after 2.5 hrs irradiation measured after 24 hrs incubation in dark by MTT assay
# Type: functional
row,SMILES,inhibition (INH) [%]
1,N[C@@H](Cc1ccccc1)C(=O)Nc1ccc(-c2c3nc(c(-c4ccc(NC(=O)[C@@H](N)Cc5ccccc5)cc4)c4ccc([nH]4)c(-c4ccccc4)c4nc(c(-c5ccccc5)c5ccc2[nH]5)C=C4)C=C3)cc1,96.13
2,O=C(Cn1cc(F)c(=O)[nH]c1=O)Nc1ccc(-c2c3nc(c(-c4ccc(NC(=O)Cn5cc(F)c(=O)[nH]c5=O)cc4)c4ccc([nH]4)c(-c4ccccc4)c4nc(c(-c5ccccc5)c5ccc2[nH]5)C=C4)C=C3)cc1,100
3,CC(C)(C)OC(=O)N[C@@H](Cc1ccccc1)C(=O)Nc1ccc(-c2c3nc(c(-c4ccc(NC(=O)[C@H](Cc5ccccc5)NC(=O)OC(C)(C)C)cc4)c4ccc([nH]4)c(-c4ccccc4)c4nc(c(-c5ccccc5)c5ccc2[nH]5)C=C4)C=C3)cc1,100
4,Nc1ccc(-c2c3nc(c(-c4ccc(N)cc4)c4ccc([nH]4)c(-c4ccccc4)c4nc(c(-c5ccccc5)c5ccc2[nH]5)C=C4)C=C3)cc1,66.6
5,Nc1ccc(-c2c3nc(c(-c4ccc(NC(=O)[C@@H](N)Cc5ccccc5)cc4)c4ccc([nH]4)c(-c4ccccc4)c4nc(c(-c5ccccc5)c5ccc2[nH]5)C=C4)C=C3)cc1,37.94
6,N[C@@H](Cc1ccccc1)C(=O)Nc1ccc(-c2c3nc(c(-c4ccc(NC(=O)Cn5cc(F)c(=O)[nH]c5=O)cc4)c4ccc([nH]4)c(-c4ccccc4)c4nc(c(-c5ccccc5)c5ccc2[nH]5)C=C4)C=C3)cc1,69.45
7,Nc1ccc(-c2c3nc(c(-c4ccc(NC(=O)Cn5cc(F)c(=O)[nH]c5=O)cc4)c4ccc([nH]4)c(-c4ccccc4)c4nc(c(-c5ccccc5)c5ccc2[nH]5)C=C4)C=C3)cc1,97.09
8,CC(C)(C)OC(=O)N[C@@H](Cc1ccccc1)C(=O)Nc1ccc(-c2c3nc(c(-c4ccc(NC(=O)Cn5cc(F)c(=O)[nH]c5=O)cc4)c4ccc([nH]4)c(-c4ccccc4)c4nc(c(-c5ccccc5)c5ccc2[nH]5)C=C4)C=C3)cc1,88.65
9,CC(C)(C)OC(=O)N[C@@H](Cc1ccccc1)C(=O)Nc1ccc(-c2c3nc(c(-c4ccc(N)cc4)c4ccc([nH]4)c(-c4ccccc4)c4nc(c(-c5ccccc5)c5ccc2[nH]5)C=C4)C=C3)cc1,47.21
